Source: PMC5762686, “Structural ensemble-based docking simulation and biophysical studies discovered new inhibitors of Hsp90 N-terminal domain” (Scientific Reports, 2018)
Where two headings read alike, the source gives them in different places.

How the values were obtained:
Hsp90N [1] = biological target: T1, Hsp90N (Homo sapiens, UniProt P07900); test: Differential scanning fluorimetry (DSF), change of Tm; type: binding; conditions: apo Tm 44.4 °C, Hsp90N 2 μM, inhibitor 200 μM
T1 construct: contains DNA corresponding to residues 1–235 of human Hsp90α; made in house; host or cells: Escherichia coli BL21 (DE3)
Description: We also measured the change in the Tm value using differential scanning fluorimetry (DSF) to support direct binding (Fig. 2C).
DSF using a RT-PCR system (CFX connect, BioRad) assessed the stability of Hsp90N in the absence and presence of the hit compounds that were identified by 2D NMR[75]. Once Sypro-Orange (5×) was added into the solution of Hsp90N with each hit compound, the fluorescence from the dye was measured with excitation at 492 nm and emission at 610 nm in a temperature-dependent manner from 30 to 90 °C. The concentrations for Hsp90N and inhibitors were 2 and 200 μM, respectively. As a control, DMSO was mixed with the protein, and the fluorescence was measured with an identical procedure. The mid-point of the melting temperature, Tm, was deduced by calculating the temperature that maximizes the differential curve of the profiles.

Hsp90 = test system: Hsp90; design: method as in PMID 16854066; conditions: fluorescence polarization; cited from earlier work
Hsp90N [2] = test system: Hsp90N; design: method as in PMID 27899599; conditions: PubChem BioAssay database AID: 712; cited from earlier work
Hsp90N [3] = test system: Hsp90N; design: method as in PMID 19519743; conditions: BindingDB; cited from earlier work

Which “elevated Tm values” (Hsp90N [1]) does the source give for `CO[C@H]1/C=C\C=C(/C)C(=O)NC2=CC(=O)C(NCCN(C)C)=C(C[C@@H](C)C[C@H](OC)[C@H](O)[C@@H](C)/C=C(\C)[C@@H]1OC(N)=O)C2=O` [17-DMAG] here?
Its value is 11.3.

And the IC50 (Hsp90)?
Its IC50 is 62 nM.

For `Cc1cc(SCC(N)=O)nc(SCC(=O)c2ccccc2)n1` [ZINC00421600], which IC50 (Hsp90N [2]) is on record?
Its IC50 is 50000 nM.

With `Oc1ccc(-c2n[nH]c(=S)n2-c2ccccc2)c(O)c1` [ZINC01264822] as the compound, how does the IC50 (Hsp90N [3]) read?
The IC50 was 0.5 nM.

For `CCc1cc(-c2n[nH]cc2-c2ccc3c(c2)OCO3)c(O)cc1O` [ZINC18130036], which IC50 (Hsp90N [2]) is on record?
The IC50 was 2000 nM.
